From patent publication US20250387311A1, “SCLAREOL OR SCLAREOLIDE FOR IMPROVING SCALP CONDITIONS AND HAIR GROWTH” (ISP Investments LLC, priority 2022, published 2025)

Legend:
Malassezia restricta = test: Broth microdilution (MIC) assay, resazurin fluorescence; format: cell-based
Protocol: Sclareolide antifungal potential on Malassezia restricta was evaluated by the broth microdilution method.
Method: Malassezia restricta was routinely grown on modified Leeman-Notman (mLN) agar. The broth microdilution assay was performed following EUCAST guidelines (www.eucast.org) with slight modifications. Between five and ten colonies were suspended in a modified RPMI 1640 media supplemented with resazurin at a D.O (Density Optical) of 0.1. In a 96 well plate, serial dilutions of sclareolide (0.00023% to 0.12%), zinc pyrithione (0.015%-0.0023%) and Ketoconazol (0.5-0.015 μg/ml) were prepared in modified RPMI 1640. An equal volume of Malassezia restricta inoculum was added to the test samples at different concentrations. Following 48 h-60 h of incubation at 34° C., resazurin fluorescence was analyzed at 530 nm and 590 nm.
Results are presented as relative fluorescence intensity compared to DMSO control. the MIC is defined as the lowest drug concentration that inhibited growth.

Malassezia furfur = test: Anti-fungal efficacy, germ count reduction; format: cell-based; conditions: 0.12%
Protocol: Assay of the anti-fungal efficacy of zinc pyrithione, piroctone, climbazole and sclareolide on Malassezia furfur was assayed.

CYP27B1 = CYP27B1 expression in ex vivo scalp skin biopsies (immunohistochemistry); format: cell-based, human
Protocol: (§1) Method: CYP27B1 was assessed by immunohistochemistry with a specific antibody. Biopsies of healthy human scalp skin in culture were treated with sclareolide diluted at 0.12% in placebo (ceraphyl 368 (Ashland) applied once a day for 48 hours topically (20 μl/biopsy). Control biopsies received only ceraphyl 368. The immunostaining was performed using paraffin sections incubated in the presence of anti-CYP27B1 antibody (rabbit monoclonal, Abcam). After an hour and a half of incubation followed by rinses, the sections were incubated in the presence of the secondary anti-rabbit antibody coupled with a fluorophore (Alexa Fluor® 488, Invitrogen). The sections were then examined under a fluorescence microscope (Nikon Eclipse Ni-E microscope). CYP27B1 expression was then observed (using NiS-AR Nikon acquisition software) and quantified by image analysis (Volocity® image analysis software, Improvision).

keratin 10 = test: Keratin 10 expression in ex vivo scalp skin biopsies (immunohistochemistry); format: cell-based, human; conditions: 0.12%
Protocol: as §1
Method: Keratin 10 was assessed by immunohistochemistry. The protocol was the same as in example 4 with the use of anti-keratin 10 antibody (rabbit monoclonal, Abcam).

total lipids = test: Total lipid content in ex vivo scalp skin biopsies (Nile Red staining); format: cell-based, human; conditions: 0.12%
Protocol: as §1
Method: total lipids were assessed by fluorescent staining by using the fluorescent dye Nile Red. The treatment of the biopsies was the same than in example 4. […] The sections were then examined under a fluorescence microscope (Nikon Eclipse Ni-E microscope). Red fluorescence was then observed (using NiS-AR Nikon acquisition software) and quantified by image analysis (Volocity® image analysis software, Improvision).

[1] = Solubility in surfactant solution (12% Sodium laureth sulfate/2% Cocamidopropyl betaine); format: physicochemical; conditions: 12% Sodium laureth sulfate (SLES)/2% Cocamidopropyl betaine (CAPB), 1 hour stirring
[2] = tested on: Staphylococcus aureus ATCC 25923; conditions: cited from earlier work
[3] = tested on: Pseudomonas aeruginosa ATCC 27950; conditions: cited from earlier work
[4] = tested on: Escherichia coli ATCC 25922; conditions: cited from earlier work
[5] = tested on: Enterococcus faecalis ATCC 29212; conditions: cited from earlier work
[6] = 48 h-60 h incubation at 34° C., vs DMSO control

## CC1(C)CCC[C@]2(C)[C@H]3CC(=O)O[C@]3(C)CC[C@@H]12 [sclareolide, Sclareolide]
Malassezia restricta; [6]
  concentration at which growth of Malassezia restricta was completely inhibited (MIC): 0.12%
  concentration from which growth of Malassezia restricta was significantly inhibited: 0.001875%
Malassezia furfur
  Reduction % (6 h): 38.5%
  Reduction % (24 h): 32.40%
CYP27B1; 0.12% in ceraphyl 368, topical once a day, 48 hours, placebo = 100%
  CYP27B1 protein expression (% placebo): 138%
CYP27B1; 0.12%, 48-hour treatment, compared to placebo, very significant
  increase in CYP27B1 labelling intensity: +38%
Keratin 10; 48-hour treatment, compared to placebo, highly significant
  increase in keratin 10 labelling intensity: +20%
Keratin 10; 48 hours, placebo = 100%
  Keratin 10 expression (% placebo): 120%
Total lipids; 48-hour treatment, compared to placebo, significant
  increase in lipid labelling intensity: +46%
Total lipids; 48 hours, placebo = 100%
  Total lipid content (% placebo): 146%
[1]
  dissolution in surfactant solution: could not be dissolved
[2]
  antibacterial activity: good antibacterial activity
[3]
  antibacterial activity: good antibacterial activity
[4]
  antibacterial activity: good antibacterial activity
[5]
  antibacterial activity: good antibacterial activity

## CC(C)(C)C(=O)C(Oc1ccc(Cl)cc1)n1ccnc1 (stereo not shown) [Climbazole, climbazole]
Malassezia furfur
  Reduction % (6 h): 38.5%
  Reduction % (24 h): 33.80%

## Cc1cc(CC(C)CC(C)(C)C)n(O)c(=O)c1 (stereo not shown) [OCT, piroctone]
Malassezia furfur
  Reduction % (6 h): 15.4%
  Reduction % (24 h): 35.30%

## zinc pyrithione [ZPT]
Malassezia restricta; tested in parallel at the same concentrations
  inhibition of Malassezia restricta: high inhibition
Malassezia furfur
  Reduction % (6 h): 47.4%
  Reduction % (24 h): 93.10%
